Patent US20200068887A1, “TREATMENT FOR REMOVING ECTOPARASITES FROM FISH” (priority 2016, published 2020)

Columns and labels:
Format in all cases: in vivo
Lepeophtheirus salmonis [1] = assay: Relative efficacy study (optimisation of treatment concentration); conditions: for Parasite clearance: n=2, ±SEM
Description: 120 salmon fish (Salmo salar) were divided across five flow-through treatment tanks and acclimated for 24 hours prior to parasite challenge.
Egg strings removed from ovigerous female Lepeophtheirus salmonis were collected and cultured until infective copepodids were produced. The copepodids were then evenly distributed into five bottles containing sea water and stored at ˜10° C. overnight. In preparation for the challenge, water flows in the treatment tanks were stopped and light levels reduced. 650±20 copepodids (˜27 per host) were added to the static water and the tanks maintained in total darkness for 7 hours after which light levels were raised and the water flow resumed.
Fish were randomly divided into ten groups of ten fish and held in static ‘treatment buckets’ containing 30 L of water and high aeration as shown in Table 3.
Eight of the groups (3-10) were treated with the required concentrations of imidacloprid for 60 minutes: imidacloprid was dissolved in DMSO and added to ˜1L of tank water prior to addition to the treatment buckets. The remaining group and its replicate (1 & 2) were DMSO controls at 0.03%.
Experimental animals were monitored closely for adverse reactions and the status of the parasite infection. Where possible the time at which all parasites were thought to have detached was recorded. As treatments were performed in static systems, temperature and dissolved oxygen were regularly monitored throughout the procedure and aeration adjusted as required.
After the treatment period, the test animals were removed from the treatment solution and humanly euthanised. Each fish was weighed, measured, and its individual parasite burden assessed. The number of parasites in the treatment solution was also counted and qualitatively assessed for: sex and maturity, apparent signs of neonicotinoid poisoning, and/or potential recovery.
Logistic regression was used to compare parasite clearance after treatment with each of the concentration. Logistic regression analyses were performed using the glm function in R v.2.13.0 and assumed a binomial or quasi-binomial error distribution (determined through the comparison of the null deviance with the degrees of freedom).

Lepeophtheirus salmonis [2] = assay: Sea lice recovery in clean seawater after exposure; conditions: any concentration (10-25 mg/l), post-exposure period up to 6 hours
Description: Imidacloprid exposed parasites from both the relative efficacy and rate determination studies (both those removed manually from their host post-treatment and those that detached during treatment) were immersed into clean seawater and observed for signs of recovery.
At the time of the first observation, exposed individuals were determined to be either dead or still active. Of those still active, muscular excitation was uncoordinated, uncontrolled and limited.

L. salmonis = assay: Field well boat treatment, pre- vs post-treatment sea lice counts; conditions: 20 ppm 60 min on well boat, within 24 hours after treatment, 30 fish per pen; pens A-D
Description: The effectiveness of imidacloprid against pre-adult and adult stages of L. salmonis and Caligus sp. infections on farmed Atlantic salmon was investigated by performing pre- and post-treatment sea lice counts on salmon undergoing a treatment with imidacloprid. This trial was conducted at a commercial salmon farm in Norway. The salmon were pumped onto a well boat and were exposed to 20 ppm imidacloprid for 60 minutes. The average weight of the salmon was 3.5 kg and the average number of salmon per pen was 180,000. 30 fish per pen were assessed for L. salmonis and Caligus sp., and the number of each L. salmonis life stage found was recorded. This was performed within 24 hours prior to treatment, and within 24 hours after treatment.
These assessments were made on four pens of salmon in total. Prior to treatment, fish were crowded within the pen to enable them to be pumped into the well boat, which is where the pre-treatment sea lice assessments were conducted. The post-treatment sea lice assessments were made by removing fish from the outflow pipe on the well boat.
At all time points, 3 fish were removed and placed into an anaesthetic bath. This was repeated 10 times until 30 fish had been assessed.
The numbers of sea lice observed per fish for this trial for each of the four tested pens according to sea lice life cycle state, pre- or post-administration of active are presented in Table 5.

fish = assay: Safety of imidacloprid treatment on fish
Description: The safety of the imidacloprid treatment on fish was assessed. Fish held in a flow through tank containing 271.8 L of sea water were exposed to 65 ppm w/v of the active ingredient imidacloprid. 17.67 g of imidacloprid was dissolved in 100 ml of dimethyl sulfoxide (DMSO) and the solution was added to approximately 900 ml sea water and mixed. The flow on the through tank was disabled and the solution of imidacloprid was added.
The fish were exposed to 65 ppm imidacloprid in static water for 1 hour and observed for behavioural changes at 5-10 minute intervals. The fish were then held for a further 7 days before being terminated.

## O=[N+]([O-])NC1=NCCN1Cc1ccc(Cl)nc1 [imidacloprid]
Lepeophtheirus salmonis [1]; 10 mg/l, 60 min
  parasites remaining attached to their hosts at sampling: 20%
  Parasite clearance: 80±11%
Lepeophtheirus salmonis [1]; 15 mg/l, 60 min
  parasites remaining attached to their hosts at sampling: 8%
  Parasite clearance: 92±4%
Lepeophtheirus salmonis [1]; 20 mg/l, 60 min
  parasites remaining attached to their hosts at sampling: 8%
  Parasite clearance: 92±7%
Lepeophtheirus salmonis [1]; 25 mg/l, 60 min
  parasites remaining attached to their hosts at sampling: 3%
  Parasite clearance: 97±3%
Lepeophtheirus salmonis [1]; all four dosages (10, 15, 20, 25 mg/l), 60 minute treatment
  parasite infection removed: 80-100%
Lepeophtheirus salmonis [1]; range 10-25 mg/l, 60 min, no significant increase in efficacy above
  optimum concentration within the range tested: 15 mg/L
Lepeophtheirus salmonis [2]
  functional recovery of exposed parasites in clean seawater: no clear signs of functional recovery
L. salmonis
  sea lice per fish, Adult Female, Post: 0.0
  sea lice per fish, Adult Male, Post: 0.0
  sea lice per fish, Gravid Female, Post: 0.0
  sea lice per fish, Pre-Adult Female, Post: 0.0
  sea lice per fish, Pre-Adult Male, Post: 0.0
  sea lice per fish, Total, Post: 0.0
fish; 65 ppm w/v for 1 hour, monitored a further 7 days
  adverse reactions during monitoring after exposure: no adverse reactions being noted
fish; 65 ppm w/v for 1 hour, terminated after 7 days
  external pathologies on termination: no external pathologies were noted
fish; 65 ppm w/v, static water, 1 hour
  changes in fish behaviour during the exposure period: No observable changes in fish behaviour
